Data reported in US20250282746A1, “HALOGEN-SUBSTITUTED ISOINDOLINE COMPOUND AND USE THEREOF” (CHENGDU FENDI PHARMACEUTICAL CO., LTD., priority 2022, published 2025).
Entries after “also recorded” stand apart in the source; their conditions may differ.

What was measured:
NCI-H929 cells [1] = experiment: Antiproliferative effect alone and in combination with dexamethasone against NCI-H929 cells; format: cell-based; conditions: 72 h, read-out: IC50
Procedure: (§1) MOLM-13 cells in the logarithmic growth phase were diluted in a medium RPMI+[…], and NCI-H929 cells were diluted in a medium RPMI+10% FBS. The cells were plated at 4,000 cells/well in 96-well whole black plates (WHB) with 50 μL/well. After plating, the plates were incubated in an incubator at 5% CO2 and 37° C. for 24 h before the compounds were added. The compounds were prepared into a 10 mM stock solution in DMSO and diluted in a culture medium to the desired concentrations (a final DMSO concentration of 0.2%). 50 μL of the compound dilutions at final concentrations of 10,000, 3,333.33, 1,111.11, 370.37, 123.46, 41.15, 13.72, 4.57, 1.52, and 0 nM were added to the 96-well plates containing the cells, that is, each compound was serially diluted to 10 concentrations in duplicate. The plates were incubated at 5% CO2 and 37° C. for 72 h. When pharmaceutical partners were used, the concentrations of azacitidine and dexamethasone were kept at 200 nM and 500 nM respectively, and the compounds were serially three-fold diluted from 10,000 nM. After the incubation was complete, the plates were equilibrated at room temperature for 30 min. CellTiter-Glo® Reagent (Promega G7573) was added at 100 μL/well. The plates were shaken for 12 min on a microplate shaker. The luminescence value was measured at room temperature by the GloMax navigator (Promega GM2010). The IC50 values were calculated using the GraphPad Prism 7 software with the 0 nM control group as 0% inhibition.

MOLM-13 cells [2] = experiment: Antiproliferative effect alone and in combination with azacitidine against MOLM-13 cells; format: cell-based; conditions: for IC50: MOLM-13 cells, 72 h
Procedure: as §1

MV-4-11-Luc xenograft = experiment: Efficacy in acute myeloid leukemia MV-4-11-luc xenograft mouse model; format: in vivo; conditions: for T/C (%) Day 3 / T/C (%) Day 7 / T/C (%) Day 10 / T/C (%) Day 14: 10 mg/kg orally twice daily, NSG mice
Text: In an in vivo efficacy study, female immunocompromised NSG mice aged 6 to 8 weeks were used and the experimental procedures started after the animals were acclimatized in the experimental environment for 7 days. The animals were housed in SPF animal rooms in individually ventilated cages (IVCs) each containing 6 mice. Human acute myeloid leukemia MV-4-11 cells expressing luciferase (MV-4-11-luc) were grafted into mice by tail vein injection (5×10^6 cells/mouse). Seven days after the cell grafting, the mice were subjected to imaging on the IVIS Lumina III small animal imaging system for grouping and administration, and tumor-bearing mice were randomized to the vehicle control group or treatment groups (6 mice/group). The compound (10 mg/kg, twice daily) was administered to the animals in each treatment group by oral gavage. The body weight was measured daily, while mean luminescence was measured after the start of treatment with the compounds or vehicle.
Indicators: The indicators were to investigate whether the tumor growth was inhibited or delayed or the tumor was cured. The tumor size was measured twice weekly using the IVIS Lumina III small animal imaging system. The tumor signals were determined by exposure photons per second. The anti-tumor efficacy of the compounds was evaluated by the tumor proliferation rate T/C (%). T/C %=TRTV/CRTV×100% (TRTV: the RTV of the treatment group; CRTV: the RTV of negative control group; RTV=Vt/V0, where V0 is the tumor signal measured at the time of grouping and administration (i.e., day 0), and Vt is the tumor signal at every measurement). According to the guidelines of the Center for Drug Evaluation, NMPA, a T/C (%) of >40% denotes the absence of efficacy, while a T/C of <40% with P<0.05 denotes the presence of efficacy.

hERG potassium channel = molecular target: T1, hERG potassium channel (Homo sapiens, UniProt Q12809); experiment: hERG inhibition assay (automated patch clamp, HEK293); format: cell-based; conditions: 3 μM, HEK293 cells, QPatch
T1 construct: expressed in transfected cells; host or cells: HEK293 cells
Text: The rapidly activating potassium channel encoded by human ether-a-go-go-related gene (hERG) is an important ion channel involved in the formation of cardiac action potential phase 3 repolarization. Blocking of the hERG channel by drugs can lead to the prolongation of cardiac repolarization and thus a prolonged QT interval in the electrocardiogram, known as long QT syndrome. Drug-induced delayed ventricular repolarization may in some cases trigger fatal arrhythmia-torsade de pointes-type ventricular tachycardia.
This assay was used to measure the effect of compounds on the hERG potassium channel clones expressed in human embryonic kidney (HEK293) cells. The assay procedures are as follows: the cells were transferred into a HEPES-buffered saline in glass-lined 96-well plates and exposed to an appropriate amount of test compound or control solution at various concentrations for 3 min. The test compounds were diluted in 0.3% DMSO.

GSPT1 protein = molecular target: T2, GSPT1 protein (Homo sapiens, UniProt P15170); experiment: Degradation of GSPT1 protein in NB-4 cells (Western blot); format: cell-based; conditions: NB-4 cells, compound 1 μM, 6 h; read-out: GSPT1 degradation
T2 construct: The whole cell lysate was prepared using a RIPA lysis buffer; endogenous in cells; host or cells: NB-4 cells
Procedure, shortened: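 NB-4 cells treated with compounds at 1 μM for 6 h at 37 °C, 5% CO2, with DMSO control. RIPA whole-cell lysates, BCA-normalized, were run on 4-20% SDS-PAGE and immunoblotted for GSPT1 protein.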

MV-4-11 cells [3] = experiment: Antiproliferative activity against MV-4-11 cells (CellTiter-Glo, 72 h); format: cell-based; conditions: Homo sapiens, MV4-11; MV-4-11 cells, 72 h; read-out: Antiproliferative activity IC50
Procedure, shortened: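 MV-4-11 cells in RPMI + 10% FBS plated at 5,000 cells/well and pre-incubated 24 h at 37 °C, 5% CO2. Compounds were then added (final DMSO 0.2%) and cells incubated 72 h. Viability was read by CellTiter-Glo luminescence after 30 min equilibration at room temperature.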

MV-4-11 cells [4] = experiment: Apoptotic effect on AML cells (annexin/PI flow cytometry); format: cell-based, human; conditions: 1 μM and 100 nM
Procedure: MV-4-11 cells in the logarithmic growth phase were diluted in a growth medium and plated at 600,000 cells/well in 6-well plates with 2 mL/well and the compounds were added. The cells were collected, washed twice with pre-cooled PBS, and resuspended in 100 μL of 1× annexin-binding buffer. 5 μL of FITC and 1 μL of 100 µg/mL PI were added. The cells were incubated at room temperature in the dark for 15 min and transferred on ice, and 400 μL of 1× annexin-binding buffer was added. The mixture was gently mixed and subjected to flow cytometry.

U937 cells = experiment: Antiproliferative activity against various tumor cells: U937; format: cell-based; conditions: Homo sapiens, U-937; U937 cells, 72 h; read-out: Antiproliferative activity IC50 U937
Procedure: (§2) U937, NCI-H929, AML-2, and MOLM-13 cells in the logarithmic growth phase were diluted in media RPMI+10% FBS, RPMI+10% FBS, MEMα+20% FBS, RPMI+20% FBS, respectively, and plated at 4,000 cells/well in 96-well whole black plates (WHB) with 50 μL/well. After plating, the plates were incubated in an incubator at 5% CO2 and 37° C. for 24 h before the compounds were added. The compounds were prepared into a 10 mM stock solution in DMSO and diluted in a culture medium to the desired concentrations (a final DMSO concentration of 0.2%). […] The plates were incubated at 5% CO2 and 37° C. for 72 h. After the incubation was complete, the plates were equilibrated at room temperature for 30 min. CellTiter-Glo® Reagent (Promega G7573) was added at 100 μL/well. The plates were shaken for 12 min on a microplate shaker. The luminescence value was measured at room temperature by the GloMax navigator (Promega GM2010).

NCI-H929 cells [5] = experiment: Antiproliferative activity against various tumor cells: NCI-H929; format: cell-based; conditions: Homo sapiens; NCI-H929 cells, 72 h; read-out: Antiproliferative activity IC50 NCI-H929
Procedure: as §2

AML-2 cells = experiment: Antiproliferative activity against various tumor cells: AML-2; format: cell-based; conditions: AML-2 cells, 72 h; read-out: Antiproliferative activity IC50 AML-2
Procedure: as §2

MOLM-13 cells [6] = experiment: Antiproliferative activity against various tumor cells: MOLM-13; format: cell-based; conditions: Homo sapiens; MOLM-13 cells, 72 h; read-out: Antiproliferative activity IC50 MOLM-13
Procedure: as §2

c-Myc = molecular target: T3, c-Myc (Homo sapiens, UniProt P01106); experiment: Degradation of c-MYC protein in HL-60 cells (Western blot); format: cell-based; conditions: 4 h
T3 construct: The whole cell lysate was prepared using a RIPA lysis buffer; endogenous in cells; host or cells: HL-60 cells
Procedure: (§3) […] of DMSO and the compounds were added, and the mixture was incubated in an incubator at 5% CO2 and 37° C. for 4 h. The cells were centrifuged, and the culture medium was discarded. PBS was added for washing and then discarded. The whole cell lysate was prepared using a RIPA lysis buffer containing a protease inhibitor cocktail and a phosphatase inhibitor, and incubated on ice for 30 min. The mixture was centrifuged, and the cell debris was discarded. The whole cell lysate supernatant was collected and transferred to a fresh EP tube. Samples were prepared using a loading buffer after a BCA protein assay. The samples were incubated in a metal bath at 100° C. for 10 min. The samples were electrophoretically separated from proteins on a 4-20% precast gel (SDS-PAGE gel), transferred to a PVDF membrane, blocked with 5% NFDM/TBST for 1 h at room temperature, co-incubated overnight at 4° C. with the primary antibody, and co-incubated for 2 h at room temperature with the secondary antibody on the next day. The signals were detected on the […]™ imaging system.

CK1α = molecular target: T4, CK1α (Homo sapiens, UniProt P48729); experiment: Degradation of CK1α protein in HL-60 cells (Western blot); format: cell-based; conditions: 4 h
T4 construct: The whole cell lysate was prepared using a RIPA lysis buffer; endogenous in cells; host or cells: HL-60 cells
Procedure: as §3

T3 sequence (P01106 whole entry): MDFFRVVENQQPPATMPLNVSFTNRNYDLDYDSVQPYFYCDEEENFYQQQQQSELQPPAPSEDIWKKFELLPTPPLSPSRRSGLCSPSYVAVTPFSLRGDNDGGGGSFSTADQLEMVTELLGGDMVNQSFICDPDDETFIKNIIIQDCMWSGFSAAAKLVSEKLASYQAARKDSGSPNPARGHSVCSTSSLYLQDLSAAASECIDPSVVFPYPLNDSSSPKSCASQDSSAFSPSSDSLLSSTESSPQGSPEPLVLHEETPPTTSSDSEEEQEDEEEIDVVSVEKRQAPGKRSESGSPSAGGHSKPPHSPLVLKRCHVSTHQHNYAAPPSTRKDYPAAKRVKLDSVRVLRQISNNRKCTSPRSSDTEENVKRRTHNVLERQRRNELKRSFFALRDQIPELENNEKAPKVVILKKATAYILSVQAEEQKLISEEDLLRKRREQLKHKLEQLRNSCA
T1 sequence (Q12809 whole entry): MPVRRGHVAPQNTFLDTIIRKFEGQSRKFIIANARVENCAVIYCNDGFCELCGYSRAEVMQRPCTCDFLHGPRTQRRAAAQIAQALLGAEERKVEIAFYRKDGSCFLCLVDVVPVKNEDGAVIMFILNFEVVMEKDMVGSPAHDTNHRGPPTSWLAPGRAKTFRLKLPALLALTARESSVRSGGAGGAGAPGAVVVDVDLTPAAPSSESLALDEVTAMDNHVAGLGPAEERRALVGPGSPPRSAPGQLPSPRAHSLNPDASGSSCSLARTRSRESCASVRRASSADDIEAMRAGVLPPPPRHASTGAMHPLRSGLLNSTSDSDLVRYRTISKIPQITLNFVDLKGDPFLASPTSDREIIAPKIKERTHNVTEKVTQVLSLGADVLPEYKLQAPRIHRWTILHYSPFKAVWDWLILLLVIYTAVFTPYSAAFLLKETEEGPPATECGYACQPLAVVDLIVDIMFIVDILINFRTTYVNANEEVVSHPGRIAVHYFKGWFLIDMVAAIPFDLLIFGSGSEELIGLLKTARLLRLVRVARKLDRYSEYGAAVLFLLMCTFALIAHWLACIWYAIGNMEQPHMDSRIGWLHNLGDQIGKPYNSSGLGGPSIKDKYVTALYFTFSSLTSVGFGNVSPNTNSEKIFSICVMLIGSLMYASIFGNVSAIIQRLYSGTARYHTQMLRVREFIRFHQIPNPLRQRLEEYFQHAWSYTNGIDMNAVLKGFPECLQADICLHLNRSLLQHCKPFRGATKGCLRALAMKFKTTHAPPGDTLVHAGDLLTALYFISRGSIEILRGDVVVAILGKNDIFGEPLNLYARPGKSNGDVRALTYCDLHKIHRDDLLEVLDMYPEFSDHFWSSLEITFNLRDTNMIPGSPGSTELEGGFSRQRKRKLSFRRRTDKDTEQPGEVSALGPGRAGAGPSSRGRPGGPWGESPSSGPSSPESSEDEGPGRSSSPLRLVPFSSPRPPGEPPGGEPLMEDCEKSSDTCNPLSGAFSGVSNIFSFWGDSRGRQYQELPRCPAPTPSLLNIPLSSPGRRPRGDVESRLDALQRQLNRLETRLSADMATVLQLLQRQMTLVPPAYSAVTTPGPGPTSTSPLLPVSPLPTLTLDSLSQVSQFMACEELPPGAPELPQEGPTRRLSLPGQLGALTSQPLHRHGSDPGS
T4 sequence (P48729 whole entry): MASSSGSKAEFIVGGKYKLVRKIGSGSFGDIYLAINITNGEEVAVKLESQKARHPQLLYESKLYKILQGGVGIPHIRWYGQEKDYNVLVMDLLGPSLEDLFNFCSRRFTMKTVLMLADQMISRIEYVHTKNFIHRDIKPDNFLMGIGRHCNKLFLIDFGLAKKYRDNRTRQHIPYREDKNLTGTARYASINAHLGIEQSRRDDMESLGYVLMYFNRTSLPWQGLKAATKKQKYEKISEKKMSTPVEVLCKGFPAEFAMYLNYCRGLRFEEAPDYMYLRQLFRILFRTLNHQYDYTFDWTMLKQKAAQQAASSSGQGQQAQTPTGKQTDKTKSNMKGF
T2 sequence (P15170 whole entry): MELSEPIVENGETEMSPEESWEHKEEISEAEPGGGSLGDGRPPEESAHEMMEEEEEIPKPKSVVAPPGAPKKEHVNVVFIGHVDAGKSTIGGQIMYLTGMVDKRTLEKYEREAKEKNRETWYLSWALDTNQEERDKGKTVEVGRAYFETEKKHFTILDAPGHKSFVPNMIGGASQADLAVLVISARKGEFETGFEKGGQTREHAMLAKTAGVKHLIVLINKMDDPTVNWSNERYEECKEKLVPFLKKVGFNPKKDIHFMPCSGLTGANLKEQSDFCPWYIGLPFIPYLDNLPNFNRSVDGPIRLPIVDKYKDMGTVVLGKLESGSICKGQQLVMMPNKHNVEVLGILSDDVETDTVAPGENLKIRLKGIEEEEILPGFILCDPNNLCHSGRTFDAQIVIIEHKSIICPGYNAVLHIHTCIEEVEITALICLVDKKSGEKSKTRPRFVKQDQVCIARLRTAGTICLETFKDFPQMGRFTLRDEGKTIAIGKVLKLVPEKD

Structure (SMILES) | T/C (%) Day 3 (MV-4-11-Luc xenograft) [%] | T/C (%) Day 7 (MV-4-11-Luc xenograft) [%] | T/C (%) Day 10 (MV-4-11-Luc xenograft) [%] | T/C (%) Day 14 (MV-4-11-Luc xenograft) [%] | hERG inhibition rate (hERG potassium channel) [%] | inhibition at 1 µM (GSPT1 protein) [%] | IC50 (MV-4-11 cells [3]) [nM] | apoptotic effect on MV-4-11 cells (MV-4-11 cells [4]; treated for 7 h, 10 µM) | apoptotic effect on MV-4-11 cells (MV-4-11 cells [4]; treated for 16 h) | IC50 (U937 cells) [nM] | IC50 (NCI-H929 cells [5]) [nM] | IC50 (AML-2 cells) [nM] | IC50 (MOLM-13 cells [6]) [nM] | further results
O=C1CCC(N2Cc3cc(CNC(=O)C(F)(F)c4ccc(Cl)cc4)ccc3C2=O)C(=O)N1 (stereo not drawn) [CC-90009, reference compound] | 100.80 | 133.08 | 127.05 | 132.90 | 66 |  |  |  |  |  |  |  |  | IC50 (NCI-H929 cells [1]; compound alone): 3200 nM; IC50 (NCI-H929 cells [1]; in combination with 500 nM dexamethasone): 77.3 nM; IC50 (MOLM-13 cells [2]; compound alone): 1420 nM; IC50 (MOLM-13 cells [2]; in combination with 200 nM azacitidine): 43.9 nM; tumor inhibitory effect in mouse xenograft model (MV-4-11-Luc xenograft; oral administration, 10 mg/kg twice daily, within 14 days, 10 mg/kg): no tumor inhibitory effects; also recorded: no tumor inhibitory activity
Cc1ccc(C(=O)NCc2ccc3c(c2F)CN(C2CCC(=O)NC2=O)C3=O)cc1F (stereo not drawn) [FDAB-120] | 6.69 | 1.58 | 2.00 | 2.12 | 13 | > 80 | 10 to 100 |  |  |  |  |  |  | 
O=C1CCC(N2Cc3c(ccc(CNC(=O)c4cc5cc(F)ccc5o4)c3F)C2=O)C(=O)N1 (stereo not drawn) [FDAB-46] |  |  |  |  |  | > 80 | 1 to 10 | no apoptotic effect | apoptosis was induced | 10 to 100 | 1 to 10 | 100 to 1000 | 100 to 1000 | 
CCCCCCCCCCCCSC(=S)SC(C)(C#N)CCC(=O)NCc1ccc2c(c1F)CN(C1CCC(=O)NC1=O)C2=O (stereo not drawn) [FDAB-164] |  |  |  |  |  | > 80 | < 1 |  |  |  |  |  |  | c-Myc degradation (c-Myc; 10 nM): D (D denotes a percentage of degradation less than 25%); c-Myc degradation (c-Myc; 100 nM): C (C denotes a percentage of degradation less than 500% but not less than 250%); c-Myc degradation (c-Myc; 1000 nM): C (C denotes a percentage of degradation less than 500% but not less than 250%); CK1α degradation (CK1α; 10 nM): D (D denotes a percentage of degradation less than 25%); CK1α degradation (CK1α; 100 nM): C (C denotes a percentage of degradation less than 500% but not less than 250%); CK1α degradation (CK1α; 1000 nM): C (C denotes a percentage of degradation less than 500% but not less than 250%)
Nc1ncn([C@@H]2O[C@H](CO)[C@@H](O)[C@H]2O)c(=O)n1 [Azacitidine, reference compound] |  |  |  |  |  |  |  |  |  |  |  |  |  | antiproliferative activity against MOLM-13 cells at fixed concentration (MOLM-13 cells [2]; 200 nM): no significant antiproliferative activity; IC50 (MOLM-13 cells [2]; Homo sapiens, compound alone): 751 nM
Cc1ccc(C(=O)NCc2ccc3c(c2F)CN(C2CCC(=O)NC2=O)C3=O)cc1 (stereo not drawn) [FDAB-65] | 4.58 | 1.40 | 1.01 | 0.78 | 11 | > 80 | 10 to 100 | no apoptotic effect | apoptosis was induced | 10 to 100 | 1 to 10 | 100 to 1000 | 100 to 1000 | 
